Data on 21 molecules can be found in ChEMBL document CHEMBL1201862, “PubChem BioAssay data set” (2004).

Assay in all cases: DTP human tumour cell line panel, 48 h
The subject of experiment [1] is RXF 631.
Experiment [2] relates to M19-MEL.
For experiment [3], the system named is HOP-18.
Experiment [4] concerns KM-20L2.
Experiment [5] concerns DLD-1.
In experiment [6] the test system is DMS-114.
For experiment [7], the system named is SNB-78.
Experiment [8] has as its system DMS-273.
In experiment [9] the test system is XF498.

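Cells were grown in 96-well plates and exposed to each compound for 48 hours at five concentrations; endpoints were interpolated linearly between bracketing concentrations, or set to the highest concentration if not reached. Here, GI50 denotes the concentration required for 50% inhibition of growth.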 Active and inactive are the calls of the source. No stated cut-off is given here; in the data, active = GI50 up to about 1.1 µM and inactive = higher. A value given as a limit tells only on which side of the number the result lay.

What is called GI50 is the concentration at which growth is held to half of that of the control. As for `CCN(CC)c1c(C(=O)/C=C/c2ccc(OC)cc2)c(-c2ccccc2)nn(C)c1=O`, the GI50 in experiment [1] was 20.6 µM (inactive); in experiment [2], 6.34 µM (inactive); in experiment [3], 22.2 µM (inactive); in [4] it was 15.4 µM (inactive); in experiment [5], 12.1 µM (inactive); in [6] it was 13.4 µM (inactive). The GI50 in experiment [7] was 25 µM (inactive); in experiment [8], 2.37 µM (inactive).
As to `COC(=O)C(C(=O)C(=O)Nc1cccc(OC)c1)c1cnc2ccccc2n1` (stereo not drawn), the GI50 in [1], in experiment [3], in experiment [4], in experiment [5], in experiment [9] and in [6] was > 100 µM (inactive) in each case. For the same molecule, the GI50 in [7] and in [8] was > 100 µM (inactive) in each case.
With `CC(C)(Oc1ccc2c(=O)cc(-c3ccccc3)oc2c1)C(=O)Nc1c(Cl)cccc1Cl`, the GI50 is 68.2 µM (inactive) in experiment [2]; > 100 µM (inactive) in experiment [3]; > 100 µM (inactive) in [4]; 14.3 µM (inactive) in experiment [9]; 19.7 µM (inactive) in experiment [6]; > 100 µM (inactive) in experiment [7]. Besides, the GI50 in [8] is 64.4 µM (inactive).
In the case of `COC(=O)c1ccc(Cc2ccc(C(=O)OC)o2)o1`, the GI50 in [1] was > 378 µM (inactive); in experiment [2] it was > 378 µM (inactive); in [3] it was 38.5 µM (inactive); in experiment [4] it was > 378 µM (inactive); in [5], > 378 µM (inactive); in experiment [8] it was > 378 µM (inactive).
Regarding `c1ccc(-c2[nH]c(-c3ccccc3)c(-c3cnccn3)c2-c2cnccn2)cc1`, the GI50 in experiment [2] is > 100 µM (inactive); in experiment [3], > 100 µM (inactive); in experiment [4], > 100 µM (inactive); in [5], > 100 µM (inactive); in experiment [9], 95.7 µM (inactive); in [6] it was > 100 µM (inactive). Further, the GI50 in experiment [7] and in [8] was > 100 µM (inactive) in each case.
Turning to `Clc1ccc(CN2COc3c(cc(Cl)c4cccnc34)C2)cc1`, the GI50 in experiment [1] is 10.3 µM (inactive); in [2] it was 2.28 µM (inactive); in experiment [3] it was 3.96 µM (inactive); in experiment [4] it was 14.3 µM (inactive); in [5], 2.52 µM (inactive); in experiment [9], 0.973 µM (active). The figures for the GI50 in experiment [6], in experiment [7] and in [8] were 1.84 µM (inactive), 4.79 µM (inactive) and 1.78 µM (inactive), respectively.
Turning to `Nc1nc2c(nnn2C2C=C(CO)C(O)C2O)c(=O)[nH]1` (stereo not drawn), the GI50 in experiment [2], in experiment [3], in experiment [4], in [5], in experiment [9] and in experiment [6] was > 100 µM (inactive) throughout. The GI50 in experiment [7] was 95.3 µM (inactive); in experiment [8], > 100 µM (inactive).
In the case of `O=C(O)CN(c1ccc(Cl)cc1)S(=O)(=O)c1ccccc1`, the GI50 in [1], in experiment [2], in experiment [3], in experiment [4], in [5] and in experiment [9] was > 100 µM (inactive) each time. In addition, the GI50 in experiment [8] was > 100 µM (inactive).
For `CC1=NN(C(=O)Cc2ccccc2)C(=O)/C1=C\c1ccc(O)cc1`, the GI50 in [2] was > 100 µM (inactive); in experiment [4] it was > 100 µM (inactive); in [5], > 100 µM (inactive); in experiment [9] it was > 100 µM (inactive); in experiment [6], > 100 µM (inactive); in experiment [7], 36.8 µM (inactive).
For the molecule `N#CC(NNC(=O)Cc1ccccc1)c1cccc(O)c1` (stereo not drawn), the GI50 in [2], in experiment [3], in experiment [5], in experiment [6], in experiment [7] and in experiment [8] was > 100 µM (inactive) throughout.
On to `CC1=C(C(=O)Nc2cccc(C(F)(F)F)c2)C(c2ccccc2F)C(C(=O)Nc2cccc(C(F)(F)F)c2)=C(C)N1`, for which the GI50 in experiment [1] was 10 µM (inactive); in experiment [2], 7.45 µM (inactive); in experiment [4], 4.51 µM (inactive); in experiment [5], 6.21 µM (inactive); in experiment [9], 2.09 µM (inactive); in experiment [6] it was 3.33 µM (inactive). In experiment [7], the GI50 is 13.9 µM (inactive).
On to `CC1=C(C(=O)Nc2ccc([N+](=O)[O-])cc2)C(c2ccc(N(C)C)cc2)C(C(=O)Nc2ccc([N+](=O)[O-])cc2)=C(C)N1`, for which the GI50 in experiment [2] was 15.6 µM (inactive); in experiment [4] it was 11.4 µM (inactive); in experiment [5], 11.9 µM (inactive); in experiment [7], 29.2 µM (inactive).
As for `NNC(=S)N/N=C(\c1nc2ccc(Cl)cc2nc1O)C(O)c1ccc(Cl)cc1Cl` (stereo not drawn), the GI50 in experiment [1], in experiment [2], in experiment [3], in experiment [4], in [5] and in experiment [9] was > 100 µM (inactive) throughout. Further, the GI50 in experiment [6], in experiment [7] and in experiment [8] was > 100 µM (inactive) each time.
Turning to `CCc1cccc(CC)c1NC(=O)/C(Cl)=C(/Cl)C(=O)O`, the GI50 in experiment [2] was 31.6 µM (inactive); in experiment [3], 24.3 µM (inactive); in [4] it was 43.8 µM (inactive); in [5], 22.8 µM (inactive); in [9], 22.6 µM (inactive); in [6] it was 23.2 µM (inactive). Besides, the GI50 was 37.7 µM (inactive) in experiment [7] and 50 µM (inactive) in [8].
With `Cc1ccc(Nc2ccc(Nc3ccc(C)cc3)c3c2C(=O)c2c(O)ccc(O)c2C3=O)cc1`, the GI50 was > 100 µM (inactive) in experiment [2]; > 100 µM (inactive) in [5]; > 100 µM (inactive) in [9]; > 100 µM (inactive) in experiment [6]; 68.1 µM (inactive) in [7]; > 100 µM (inactive) in [8].
As for `O=C(O)CCSC(=S)Nc1ccc([N+](=O)[O-])cc1`, the GI50 in [4] is > 100 µM (inactive); in experiment [6] it was 37.7 µM (inactive); in [7] it was > 100 µM (inactive); in experiment [8] it was 75.9 µM (inactive).
Turning to `COC(=O)C1=C(c2cc(OC)c(OC)c(OC)c2)OC(c2cc(OC)c(OC)c(OC)c2)C1COC(C)=O` (stereo not drawn), the GI50 is 17.4 µM (inactive) in experiment [1]; 32.1 µM (inactive) in experiment [2]; 71.6 µM (inactive) in experiment [4]; 26.2 µM (inactive) in [5]; 32.4 µM (inactive) in experiment [9]; 34.7 µM (inactive) in [6]. Moreover, the GI50 in experiment [7] was 45.7 µM (inactive); in [8], 25.6 µM (inactive).
As to `Oc1ncnc2c1CCCN2`, the GI50 in [2] was > 100 µM (inactive); in experiment [3] it was 16.5 µM (inactive); in [4], > 100 µM (inactive); in [5], > 100 µM (inactive); in experiment [6] it was > 100 µM (inactive); in [7] it was > 100 µM (inactive).
Consider `COC(=O)C(=O)C(C(=O)C1=NS(=O)(=O)c2cc(S(N)(=O)=O)c(Cl)cc2N1)c1nc2ccc(C(=O)c3ccccc3)cc2nc1O` (stereo not drawn), for which the GI50 in [1] was 86.9 µM (inactive); in experiment [2] it was > 100 µM (inactive); in [3] it was > 100 µM (inactive); in experiment [4], > 100 µM (inactive); in experiment [9], 39 µM (inactive); in experiment [7], 85.1 µM (inactive). Moreover, the GI50 in [8] was > 100 µM (inactive).
As for `COC(=O)C1C(O)CC(c2ccccn2)N(Cc2ccccc2)C1c1ccccn1` (stereo not drawn), the GI50 in experiment [1], in [2], in [3], in [4], in experiment [5] and in experiment [6] was > 100 µM (inactive) throughout. The GI50 in experiment [7] and in experiment [8] was > 100 µM (inactive) throughout.
As for `CN1CC(=O)N(C)c2ncn(Cc3ccccc3)c2C1=O`, the GI50 in [1] was 4.68 µM (inactive); in experiment [2] it was > 100 µM (inactive); in [3], > 100 µM (inactive); in experiment [5] it was > 100 µM (inactive); in experiment [9], 17 µM (inactive); in experiment [6] it was > 100 µM (inactive). For the same molecule, the GI50 in experiment [7] and in experiment [8] was > 100 µM (inactive) in each case.
